Experimental data reported in ChEMBL document CHEMBL1811894, “Structural and conformational analysis of proanthocyanidins from Parapiptadenia rigida and their wound-healing properties” (J Nat Prod, 2011).
The source made the active and inactive calls. The calls are words filed in the database; no cut-off is given here.

Tests used:
[1] = test system: NIH3T3; test: Wound healing activity in Swiss albino mouse 3T3 cells assessed as cell migration-associated increase in cell number at 20 uM after 12 hrs by scratch assay; format: functional, cell-based
[2] = test system: NIH3T3; test: Cytotoxicity against Swiss albino mouse 3T3 cells at 10 to 20 uM; format: cell-based; settings: nih3t3, 20 µM
[3] = test system: Jurkat; test: Inhibition of TNF-alpha-induced NFkappaB activity in human Jurkat cells at 10 uM after 24 hrs by EMSA; format: cell-based
[4] = test system: NIH3T3; test: Wound healing activity in Swiss albino mouse 3T3 cells assessed as cell migration-associated increase in cell number at 1 uM after 12 hrs by scratch assay; format: functional, cell-based
[5] = test system: NIH3T3; test: Wound healing activity in Swiss albino mouse 3T3 cells assessed as cell migration-associated increase in cell number at 10 uM after 12 hrs by scratch assay; format: functional, cell-based

SMILES	Activity [1]	Activity [2]	inhibition [3]	Activity [4]	Activity [5]
COc1c(O)cc([C@H]2Oc3c(c(O)cc(O)c3[C@H]3c4c(O)cc(O)cc4O[C@H](c4cc(O)c(O)c(O)c4)[C@@H]3O)C[C@@H]2O)cc1O	inactive	Toxic	Active	Active	inactive
COc1c(O)cc([C@H]2Oc3c(c(O)cc(O)c3[C@H]3c4c(O)cc(O)cc4O[C@H](c4ccc(O)c(O)c4)[C@@H]3O)C[C@@H]2O)cc1O	inactive	Toxic		Active	inactive
COc1c(O)cc([C@H]2Oc3cc(O)cc(O)c3[C@@H](c3c(O)cc(O)c4c3O[C@H](c3cc(O)c(OC)c(O)c3)[C@@H](O)C4)[C@@H]2O)cc1O	inactive	Toxic		Active	inactive
